According to PMC12328707, “Potassium binding by carbonyl clusters, halophilic adaptation and catalysis of Haloferax mediterranei D-2-hydroxyacid dehydrogenase” (Communications Biology, 2025):

Molecular target: T1, D2HDH (Haloferax mediterranei, UniProt Q2VEQ7)
T1 construct: gene ddh; homodimer (~66 kDa; 79 kDa by gel filtration); residues 1-308; no tag mentioned
Assay: X-ray crystal structure, […] Å
Format: binding
Details: formed by turnover in the crystallisation drop; NADP+ bound; modelled in subunit B as 2:1 mixture of 2-ketohexanoic acid and hydroxy acid

T1 sequence (Q2VEQ7 whole entry, the tested form may be a part): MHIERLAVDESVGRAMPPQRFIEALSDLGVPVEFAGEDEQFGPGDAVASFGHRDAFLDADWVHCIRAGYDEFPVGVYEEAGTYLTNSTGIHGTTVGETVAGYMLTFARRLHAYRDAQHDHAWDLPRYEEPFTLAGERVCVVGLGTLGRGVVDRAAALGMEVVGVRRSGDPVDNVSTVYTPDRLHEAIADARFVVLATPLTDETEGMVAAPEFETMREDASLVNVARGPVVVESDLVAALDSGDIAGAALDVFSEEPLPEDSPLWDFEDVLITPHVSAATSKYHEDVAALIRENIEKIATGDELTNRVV

CCCC[C@@H](O)C(=O)O [D-2-hydroxyhexanoic acid]
X-ray crystal structure, 1.57 Å: D-2-hydroxyhexanoic acid (beige carbons) bound to the active site of the D2HDH/NADP^+ complex
